# Assay results taken from patent publication US12358941B2, “Lipidic analogs of anti-cancer stem cell agent” (VIRGINIA COMMONWEALTH UNIVERSITY, priority 2019, dated 2025).
# Values joined by “and” are separate entries in the source; they are usually repeats but may differ in a detail not shown here. Identical values can stand only once. “Also recorded” adds a separate entry of the source. Like-named read-outs stand apart in the source and are kept apart here.
# Assays:
# [1] = tested on: HT-29 cells (monolayer); assay: Monolayer MTT growth assay, HT-29; assay type: cell-based; details: HT-29 monolayer growth
# Protocol: (§1) The inhibitory potential of lipid-modified compounds of Formula I against CSCs was tested using a primary spheroids inhibition assay in various cancer cell lines including HT-29, RKO, HCT-116, LS1034, HC-15, WiDr, SW480, COLO205, NCI-H508, SW1116, LS174T, KM12 etc. Cells were grown both under monolayer and spheroid conditions as described in earlier work [Patel, N. J., et al. ACS Chem. Biol. 2014, 9, 1826-1833]. For primary sphere assay, cells were plated in non-treated, low adhesion, 96 wells plate at the concentration of 100 cells/100 μL/well in stem cell media (SCM) that consisted of DMEM:F12:AA, supplemented with 1×B27, 20 ng/mL epidermal growth factor, and 10 ng/mL fibroblast growth factor. After 4 h of incubation, vehicle (control) or G2.2 and its lipid analogs at the desired concentrations were added to each well (at least in triplicates for each sample). On day five, numbers of spheres ranging from 50 to 150 micrometers in diameter were counted using phase contrast microscope and percent inhibition was calculated compared to control. For monolayer assay, approximately 2.5×10^3 cells/100 μL/well were plated in 96-well tissue culture treated plate. After overnight incubation at 37° C. vehicle (control) or G2.2 was added at the desired concentration and the cells were further incubated for 60-72 h. At the end of the incubation, 10 μL of 5 mg mL^−1 MTT solution ((3-(4,5-dimethylthiazol-2-yl)-2,5-diphenyltetrazolium bromide, Sigma) made in phosphate buffered saline (PBS) (Gibco) was added to each well and incubated for minimum of 2 to 3 h until crystals formation was observed. Following this, 150 μL of 4 mM HCl (Sigma) in isopropanol solution was added dropwise to each well and the mixture was triturated until the crystals dissolve completely. Finally, the plate was placed on the spectrophotometer reader and read at 590 nm and growth inhibition was calculated as percent of control.
# [2] = Pharmacokinetics in rats, plasma concentration by fluorimetry; assay type: in vivo, Sprague-Dawley rats
# Protocol: The animal protocol was approved by the Institutional Animal Care and Use Committee at VCU. Adult male Sprague-Dawley rats weighing 250-275 g were acclimatized for over 3 days with free access to standard rat diet and tap water. Animals were then placed on overnight fasting (i.e., without diet, but with free access to water) on a day before the PK studies. Each animal was anesthetized with an IP injection of urethane and an aliquot (0.1 mL) of blood was withdrawn as a prior-to-dosing or time 0 sample from the jugular vein with a use of 0.11 M sodium citrate (0.01 mL) as anti-coagulant. Rats (n=4 or 5) received G2.2 or IIb via IV injection or PO administration, while one animal received G2.2 via IP bolus injection. G2.2 and IIb were dissolved in sterile saline (0.1 mL IV and IP; 0.2 mLs PO). A series of blood aliquots (0.1 mL) were sampled from the jugular vein at different time points over 0 to 8 h. The blood samples were immediately centrifuged at 11,750 g for 3 min to yield the plasma samples, which were then stored at −70° C. At the conclusion of PK studies, all rats were euthanized by exsanguination under the surgical anesthesia.
# The concentrations of G2.2 and lipid analogs in plasma were determined by the quantitative fluorimetry assay in which plasma samples were first diluted 2-fold (v/v) with 0.05 M PBS (pH 7.4), then an equal volume of methanol added and the mixture centrifuged at 11,750 g for 5 min. The supernatants were transferred to black 96 well-plates and the fluorescence at 528 nm (G2.2) or 460 nm (lipid analog) (λEX=340 nm) read using a microplate reader. Reference profiles, prepared for concentrations in the range of 0.5 and 50 μg/mL (R^2=0.98-0.99), were used to calculate plasma concentration at every time point.
# The PK profile was analyzed using conventional analysis. The parameters deduced included peak plasma concentration (Cmax), the time required to reach Cmax (Tmax), the plasma concentration-time curve (AUC0-∞), the terminal half-life (t1/2), the apparent clearance (CL/F) and the apparent pseudo-steady state volume of distribution (Vpss/F). The absolute bioavailability (F) was deduced for G2.2, while relative bioavailability was deduced for lipid analogs.
# [3] = background statement; cited from earlier work
# [4] = tested on: HT-29 spheroids (CSCs); assay: Primary spheroids inhibition assay, HT-29; assay type: cell-based
# Protocol: as §1
# [5] = tested on: RKO colon spheroids; assay: Primary spheroids inhibition assay, RKO; assay type: cell-based; details: FIG. 6
# Protocol: The inhibitory potential of lipid-modified compounds of Formula I against CSCs was tested using a primary spheroids inhibition assay in various cancer cell lines including HT-29, RKO, HCT-116, LS1034, HC-15, WiDr, SW480, COLO205, NCI-H508, SW1116, LS174T, KM12 etc. Cells were grown both under monolayer and spheroid conditions as described in earlier work [Patel, N. J., et al. ACS Chem. Biol. 2014, 9, 1826-1833]. […] On day five, numbers of spheres ranging from 50 to 150 micrometers in diameter were counted using phase contrast microscope and percent inhibition was calculated compared to control. […] At the end of the incubation, 10 μL of 5 mg mL^−1 MTT solution ((3-(4,5-dimethylthiazol-2-yl)-2,5-diphenyltetrazolium bromide, Sigma) made in phosphate buffered saline (PBS) (Gibco) was added to each well and incubated for minimum of 2 to 3 h until crystals formation was observed. Following this, 150 μL of 4 mM HCl (Sigma) in isopropanol solution was added dropwise to each well and the mixture was triturated until the crystals dissolve completely. Finally, the plate was placed on the spectrophotometer reader and read at 590 nm and growth inhibition was calculated as percent of control.
# [6] = tested on: activated partial thromboplastin time (APTT), human plasma; assay: APTT clotting assay in human plasma; assay type: biochemical; details: for Safety Index: APTT doubling concentration vs HT-29 CSC IC50; for Concentration required to double APTT: citrated human plasma
# Protocol: Glycosaminoglycans, especially heparin/HS, are known for their ability to inhibit the coagulation system. Because G2.2 and its lipid analogs are mimetics of GAGs, it is important to study their effects on the coagulation system. We measured the concentration of lipid-modified G2.2 analogs required to double the activated partial thromboplastin time (APTT; Table 4). The experiments were performed as described in earlier work [Henry, B. L., et al. Blood Coag Fibrinol 2009, 20, 27-34]. Briefly, a standard one-stage recalcification assay in a BBL Fibrosystem fibrometer (Becton-Dickinson, Sparles, MD) was used to measure clotting times in human plasma. A 10 μL aqueous solution of the lipidic analog at a desired concentration was mixed with 90 μL of citrated human plasma and 100 μL of prewarmed APTT reagent. After incubation for 4 min at 37° C., clotting was initiated by adding 100 μL of prewarmed 25 mM CaCl2), and the time to clot was noted. The concentration of the analog required to double the clotting time was calculated from the clotting time versus concentration profile. In general, cholesterol modification of G2.2 increased its anticoagulation potency.
# [7] = tested on: normal colon tissue spheroids; assay: Patient-derived spheroid growth, normal colon tissue; assay type: cell-based, human; details: 5 μM
# [8] = tested on: cancerous tissue-derived primary human spheroids; assay: Patient-derived spheroid growth, cancerous colon tissue; assay type: cell-based; details: 5 μM
# [9] = tested on: CSC-induced HT-29 xenografts; assay: CSC-induced HT-29 xenograft model; assay type: in vivo
# Protocol: Briefly, the protocols were approved by the Animal Component of Research Protocol Committee at McGuire VA Medical Center, Richmond, VA Xenografts were generated by injecting 10^5 CD133 hi/CXCR4hi (Dual hi) fluorescence-activated cell sorter (FACS) isolated HT29 cells suspended in 50% reduced growth factor Matrigel (BD Bioscience; in 50 μL sterile PBS) into the right flank of 6-week-old, female NCr nude mice (Taconic Farms) subcutaneously.
# Once the tumors reached 50 mm^3, mice were randomized to either of the three groups (vehicle, 200 mg/kg G2.2, or 100 mg/kg IIb) and dosed i.p three times a week for three weeks. Tumor measurements on each animal were made 3 times a week with Vernier calipers, and tumor volume was calculated using the formula: V=W^2 (L)/2, where V is the volume in mm^3, and W and L are the width and length in mm. […] The remainder of animals were monitored till they reached predefined humane end-points. Animals were sacrificed per Institutional Animal Care and Use Committee—approved methods of euthanasia.
# [10] = tested on: xenografts-derived cells (HT-29), 3° spheroids; assay: Ex vivo tertiary spheroid formation of xenograft-derived cells; assay type: cell-based; details: cells from treated xenografts, a week after last dose
# Excerpt: We also utilized our earlier observation that CSCs/progenitors are enhanced several-fold in spheroid culture and assessed the xenografts-derived cells for retention of tertiary spheroid growth inhibition profiles to distinguish between non self-renewing progenitors and self-renewing CSCs ex vivo.
# [11] = HT-29 CSCs, Table 4, read-out: IC50 (HT-29 CSCs)
# [12] = HT-29 spheroid growth, read-out: Spheroid IC50
molecule,measurement,setting,value
O=c1c(OS(=O)(=O)O)c(-c2ccc(OS(=O)(=O)O)c(OS(=O)(=O)O)c2)oc2cc(OS(=O)(=O)O)cc(OCCCOc3cc(OS(=O)(=O)O)cc4oc(-c5ccc(OS(=O)(=O)O)c(OS(=O)(=O)O)c5)c(OS(=O)(=O)O)c(=O)c34)c12 [Compound G2.2],IC50,[1],> 500 µM
same,distribution phase,"[2]; G2.2 IV bolus 50 mg/kg, rats",about 1.5 hours
same,AUC0-∞ (area under the plasma concentration v/s time curve),"[2]; IP 200 mg/kg, rat",6398 µg·h/mL
same,Cmax,"[2]; IP 200 mg/kg, rat",925 µM
same,Cmax (maximum plasma concentration),"[2]; IP 200 mg/kg, rat",~1350 µg/mL
same,t1/2 (terminal half-life),"[2]; IP 200 mg/kg, rat",3 h
same,F (absolute bioavailability),"[2]; IP 200 mg/kg, rat, 200 mg/kg",30%
same,terminal half-life,"[2]; IV bolus 50 mg/kg, rats",4.4 h
same,AUC0-∞ (area under the plasma concentration v/s time curve),"[2]; PO 200 mg/kg, rats",584 µg·h/mL
same,Cmax,"[2]; PO 200 mg/kg, rats",55.6 µM
same,t1/2 (terminal half-life),"[2]; PO 200 mg/kg, rats",4.6 h
same,Cmax (maximum plasma concentration),"[2]; PO 200 mg/kg, rats, 200 mg/kg",81.2 µg/mL and 81 µg/mL
same,F (absolute bioavailability),"[2]; PO 200 mg/kg, rats, 200 mg/kg",3%
same,half-life,[3],4 h
same,oral bioavailability,[3],< 1%
same,IC50,[4]; [11],29 ± 1 µM
same,IC50,[4]; [12],29 ± 1 µM
same,inhibition of RKO colon spheroids,[5],dose-dependent inhibition
same,Safety Index,[6],22-fold
same,Concentration required to double APTT,[6],640 µM
CC(C)CCCC(C)C1CCC2C3CC=C4CC(OCCCCCOc5cc(-c6oc7cc(OS(=O)(=O)[O-])cc(OCCCOc8cc(OS(=O)(=O)[O-])cc9oc(-c%10ccc(OS(=O)(=O)[O-])c(OS(=O)(=O)[O-])c%10)c(OS(=O)(=O)[O-])c(=O)c89)c7c(=O)c6OS(=O)(=O)[O-])ccc5OS(=O)(=O)[O-])CCC4(C)C3CCC12C.[Na+].[Na+].[Na+].[Na+].[Na+].[Na+].[Na+] (centres unmarked) [IIb],"effect on spheroid growth formation, normal tissue",[7],without any effect
same,IC50,[1],> 500 µM
same,peaks in the plasma concentration vs. time profile,"[2]; PO nominal 50 mg/kg, rats, 0-8 h",At least 2
same,"inhibition of spheroid growth formation, cancerous tissue",[8],significantly inhibited
same,IC50,[4]; [11],8.2 ± 1.5 µM
same,IC50,[4]; [12],8.2 ± 1.5 µM
same,inhibition of RKO colon spheroids,[5],dose-dependent inhibition
same,Safety Index,[6],6-fold
same,Concentration required to double APTT,[6],48 µM
same,decrease in tumor volume compared with vehicle controls,"[9]; 100 mg/kg i.p., 3 times a week x 3 weeks, end of treatment",> 80%
same,gross toxicity (animal body weight),"[9]; 100 mg/kg i.p., nude mice",did not show any gross toxic effects; also recorded: no gross toxicity
same,"CSC markers (DCLK1, LGR5) and self-renewal factor (BMI-1), western blot of xenografts","[9]; 100 mg/kg i.p., vs vehicle",robust reduction; also recorded: reduction in CSC markers
same,tumor volume compared to vehicle treated mice,"[9]; 100 mg/kg, i.p.",significant reduction in tumor volume
same,effect on tumor volume compared to G2.2 (200 mg/kg),[9]; IIb 100 mg/kg i.p.,> 2 fold
same,"CSC markers, flow cytometry analysis of mice xenografts",[9]; IIb treated mice,reduction in CSC markers
same,in vivo potency relative to G2.2,[9]; overall in vivo studies,~4 fold
same,decrease in 3° spheroid formation vs vehicle controls,[10],2.6 fold
CC(C)CCCC(C)C1CCC2C3CC=C4CC(OCCCCCCCCOc5cc(-c6oc7cc(OS(=O)(=O)[O-])cc(OCCCOc8cc(OS(=O)(=O)[O-])cc9oc(-c%10ccc(OS(=O)(=O)[O-])c(OS(=O)(=O)[O-])c%10)c(OS(=O)(=O)[O-])c(=O)c89)c7c(=O)c6OS(=O)(=O)[O-])ccc5OS(=O)(=O)[O-])CCC4(C)C3CCC12C.[Na+].[Na+].[Na+].[Na+].[Na+].[Na+].[Na+] (centres unmarked) [IIc],Monolayer IC50,[1],1079 ± 15%
same,absorption compared with G2.2,"[2]; PO, rats",far greater than that for G2.2
same,IC50,[4]; [11],0.8 ± 0.2 µM
same,IC50,[4]; [12],0.8 ± 0.2 µM
same,Safety Index,[6],63-fold
same,Concentration required to double APTT,[6],50 µM
Enoxaparin [reference compound],Concentration required to double APTT,[6],2.5 µM
